{
  "source": "ChEMBL document CHEMBL4823257",
  "about": "“Penitol A and Penicitols E-I: Citrinin Derivatives from Penicillium citrinum and the Structure Revision of Previously Proposed Analogues” (J Nat Prod, 2021)",
  "note": "pIC50: −log10 of the molar value.",
  "data": [
    {"tested_on": "Staphylococcus aureus", "assay": "Antibacterial activity against Staphylococcus aureus ATCC 29213", "format": "functional", "units": {"MIC": "µg/mL"}, "values": [
      {"compound": "Cc1c(O)cc(O)c2c1[C@H](C)[C@@H](C)OC21CCCCC1", "MIC": 16},
      {"compound": "Cc1c(O)cc2c3c1[C@H](C)[C@@H](C)O[C@@H]3[C@@H]1CCCC[C@]1(O)O2", "MIC": "> 64"},
      {"compound": "Cc1c(O)cc2c3c1[C@H](C)[C@@H](C)O[C@H]3[C@@H]1CCCC[C@@]1(O)O2", "MIC": "> 64"}
    ]},
    {"tested_on": "HL-60", "assay": "Cytotoxicity against human HL-60 cells by MTT assay", "format": "functional, cell-based", "values": [
      {"compound": "COc1cccc2c1C(=O)c1c(O)c3c(c(O)c1C2=O)C[C@@](O)(C(=O)CO)C[C@@H]3O[C@H]1C[C@H](N)[C@H](O)[C@H](C)O1", "note": "[DOXORUBICIN]", "pIC50": "> 6.00"},
      {"compound": "Cc1c(O)cc(O)c2c1[C@H](C)[C@@H](C)OC21CCCCC1", "pIC50": 4.70},
      {"compound": "Cc1c(O)cc2c3c1[C@H](C)[C@@H](C)O[C@@H]3[C@@H]1CCCC[C@]1(O)O2", "pIC50": "< 4.52"},
      {"compound": "Cc1c(O)cc2c3c1[C@H](C)[C@@H](C)O[C@H]3[C@@H]1CCCC[C@@]1(O)O2", "pIC50": "< 4.52"}
    ]},
    {"tested_on": "Bacillus subtilis", "assay": "Antibacterial activity against Bacillus subtilis ATCC 6051", "format": "functional", "units": {"MIC": "µg/mL"}, "values": [
      {"compound": "Cc1c(O)cc(O)c2c1[C@H](C)[C@@H](C)OC21CCCCC1", "MIC": 32},
      {"compound": "Cc1c(O)cc2c3c1[C@H](C)[C@@H](C)O[C@@H]3[C@@H]1CCCC[C@]1(O)O2", "MIC": "> 64"},
      {"compound": "Cc1c(O)cc2c3c1[C@H](C)[C@@H](C)O[C@H]3[C@@H]1CCCC[C@@]1(O)O2", "MIC": "> 64"}
    ]},
    {"tested_on": "MCF7", "assay": "Cytotoxicity against human MCF7 cells by SRB assay", "format": "functional, cell-based", "values": [
      {"compound": "COc1cccc2c1C(=O)c1c(O)c3c(c(O)c1C2=O)C[C@@](O)(C(=O)CO)C[C@@H]3O[C@H]1C[C@H](N)[C@H](O)[C@H](C)O1", "note": "[DOXORUBICIN]", "pIC50": "> 6.00"},
      {"compound": "Cc1c(O)cc(O)c2c1[C@H](C)[C@@H](C)OC21CCCCC1", "pIC50": 4.82},
      {"compound": "Cc1c(O)cc2c3c1[C@H](C)[C@@H](C)O[C@@H]3[C@@H]1CCCC[C@]1(O)O2", "pIC50": "< 4.52"},
      {"compound": "Cc1c(O)cc2c3c1[C@H](C)[C@@H](C)O[C@H]3[C@@H]1CCCC[C@@]1(O)O2", "pIC50": "< 4.52"}
    ]},
    {"tested_on": "Enterococcus faecalis", "assay": "Antibacterial activity against Vancomycin resistant Enterococcus faecalis 1010798", "format": "functional", "units": {"MIC": "µg/mL"}, "values": [
      {"compound": "Cc1c(O)cc(O)c2c1[C@H](C)[C@@H](C)OC21CCCCC1", "MIC": 32},
      {"compound": "Cc1c(O)cc2c3c1[C@H](C)[C@@H](C)O[C@@H]3[C@@H]1CCCC[C@]1(O)O2", "MIC": "> 64"},
      {"compound": "Cc1c(O)cc2c3c1[C@H](C)[C@@H](C)O[C@H]3[C@@H]1CCCC[C@@]1(O)O2", "MIC": "> 64"}
    ]},
    {"tested_on": "Klebsiella pneumoniae", "assay": "Antibacterial activity against Klebsiella pneumoniae WNX-1", "format": "functional", "units": {"MIC": "µg/mL"}, "values": [
      {"compound": "COLISTIN", "MIC": 0.5},
      {"compound": "Cc1c(O)cc(O)c2c1[C@H](C)[C@@H](C)OC21CCCCC1", "MIC": "> 64"},
      {"compound": "Cc1c(O)cc2c3c1[C@H](C)[C@@H](C)O[C@@H]3[C@@H]1CCCC[C@]1(O)O2", "MIC": "> 64"},
      {"compound": "Cc1c(O)cc2c3c1[C@H](C)[C@@H](C)O[C@H]3[C@@H]1CCCC[C@@]1(O)O2", "MIC": "> 64"}
    ]},
    {"tested_on": "L02", "assay": "Cytotoxicity against human L02 cells by SRB assay", "format": "functional, cell-based", "values": [
      {"compound": "COc1cccc2c1C(=O)c1c(O)c3c(c(O)c1C2=O)C[C@@](O)(C(=O)CO)C[C@@H]3O[C@H]1C[C@H](N)[C@H](O)[C@H](C)O1", "note": "[DOXORUBICIN]", "pIC50": "> 6.00"},
      {"compound": "Cc1c(O)cc(O)c2c1[C@H](C)[C@@H](C)OC21CCCCC1", "pIC50": "< 4.52"},
      {"compound": "Cc1c(O)cc2c3c1[C@H](C)[C@@H](C)O[C@@H]3[C@@H]1CCCC[C@]1(O)O2", "pIC50": "< 4.52"},
      {"compound": "Cc1c(O)cc2c3c1[C@H](C)[C@@H](C)O[C@H]3[C@@H]1CCCC[C@@]1(O)O2", "pIC50": "< 4.52"}
    ]},
    {"tested_on": "Pseudomonas aeruginosa", "assay": "Antibacterial activity against Pseudomonas aeruginosa 14", "format": "functional", "units": {"MIC": "µg/mL"}, "values": [
      {"compound": "COLISTIN", "MIC": 0.3},
      {"compound": "Cc1c(O)cc(O)c2c1[C@H](C)[C@@H](C)OC21CCCCC1", "MIC": "> 64"},
      {"compound": "Cc1c(O)cc2c3c1[C@H](C)[C@@H](C)O[C@@H]3[C@@H]1CCCC[C@]1(O)O2", "MIC": "> 64"},
      {"compound": "Cc1c(O)cc2c3c1[C@H](C)[C@@H](C)O[C@H]3[C@@H]1CCCC[C@@]1(O)O2", "MIC": "> 64"}
    ]},
    {"tested_on": "A549", "assay": "Cytotoxicity against human A549 cells by SRB assay", "format": "functional, cell-based", "values": [
      {"compound": "COc1cccc2c1C(=O)c1c(O)c3c(c(O)c1C2=O)C[C@@](O)(C(=O)CO)C[C@@H]3O[C@H]1C[C@H](N)[C@H](O)[C@H](C)O1", "note": "[DOXORUBICIN]", "pIC50": "> 6.00"},
      {"compound": "Cc1c(O)cc(O)c2c1[C@H](C)[C@@H](C)OC21CCCCC1", "pIC50": 4.55},
      {"compound": "Cc1c(O)cc2c3c1[C@H](C)[C@@H](C)O[C@@H]3[C@@H]1CCCC[C@]1(O)O2", "pIC50": "< 4.52"},
      {"compound": "Cc1c(O)cc2c3c1[C@H](C)[C@@H](C)O[C@H]3[C@@H]1CCCC[C@@]1(O)O2", "pIC50": "< 4.52"}
    ]},
    {"tested_on": "K562", "assay": "Cytotoxicity against human K562 cells by MTT assay", "format": "functional, cell-based", "values": [
      {"compound": "COc1cccc2c1C(=O)c1c(O)c3c(c(O)c1C2=O)C[C@@](O)(C(=O)CO)C[C@@H]3O[C@H]1C[C@H](N)[C@H](O)[C@H](C)O1", "note": "[DOXORUBICIN]", "pIC50": "> 6.00"},
      {"compound": "Cc1c(O)cc(O)c2c1[C@H](C)[C@@H](C)OC21CCCCC1", "pIC50": 5.06},
      {"compound": "Cc1c(O)cc2c3c1[C@H](C)[C@@H](C)O[C@@H]3[C@@H]1CCCC[C@]1(O)O2", "pIC50": "< 4.52"},
      {"compound": "Cc1c(O)cc2c3c1[C@H](C)[C@@H](C)O[C@H]3[C@@H]1CCCC[C@@]1(O)O2", "pIC50": "< 4.52"}
    ]},
    {"tested_on": "HCT-116", "assay": "Cytotoxicity against human HCT-116 cells by SRB assay", "format": "functional, cell-based", "values": [
      {"compound": "COc1cccc2c1C(=O)c1c(O)c3c(c(O)c1C2=O)C[C@@](O)(C(=O)CO)C[C@@H]3O[C@H]1C[C@H](N)[C@H](O)[C@H](C)O1", "note": "[DOXORUBICIN]", "pIC50": "> 6.00"},
      {"compound": "Cc1c(O)cc(O)c2c1[C@H](C)[C@@H](C)OC21CCCCC1", "pIC50": 4.62},
      {"compound": "Cc1c(O)cc2c3c1[C@H](C)[C@@H](C)O[C@@H]3[C@@H]1CCCC[C@]1(O)O2", "pIC50": "< 4.52"},
      {"compound": "Cc1c(O)cc2c3c1[C@H](C)[C@@H](C)O[C@H]3[C@@H]1CCCC[C@@]1(O)O2", "pIC50": "< 4.52"}
    ]},
    {"tested_on": "Escherichia coli", "assay": "Antibacterial activity against Escherichia coli ATCC 25922", "format": "functional", "units": {"MIC": "µg/mL"}, "values": [
      {"compound": "COLISTIN", "MIC": 0.5},
      {"compound": "Cc1c(O)cc(O)c2c1[C@H](C)[C@@H](C)OC21CCCCC1", "MIC": "> 64"},
      {"compound": "Cc1c(O)cc2c3c1[C@H](C)[C@@H](C)O[C@@H]3[C@@H]1CCCC[C@]1(O)O2", "MIC": "> 64"},
      {"compound": "Cc1c(O)cc2c3c1[C@H](C)[C@@H](C)O[C@H]3[C@@H]1CCCC[C@@]1(O)O2", "MIC": "> 64"}
    ]},
    {"tested_on": "MDA-MB-231", "assay": "Cytotoxicity against human MDA-MB-231 cells by SRB assay", "format": "functional, cell-based", "values": [
      {"compound": "COc1cccc2c1C(=O)c1c(O)c3c(c(O)c1C2=O)C[C@@](O)(C(=O)CO)C[C@@H]3O[C@H]1C[C@H](N)[C@H](O)[C@H](C)O1", "note": "[DOXORUBICIN]", "pIC50": "> 6.00"},
      {"compound": "Cc1c(O)cc(O)c2c1[C@H](C)[C@@H](C)OC21CCCCC1", "pIC50": 4.59},
      {"compound": "Cc1c(O)cc2c3c1[C@H](C)[C@@H](C)O[C@@H]3[C@@H]1CCCC[C@]1(O)O2", "pIC50": "< 4.52"},
      {"compound": "Cc1c(O)cc2c3c1[C@H](C)[C@@H](C)O[C@H]3[C@@H]1CCCC[C@@]1(O)O2", "pIC50": "< 4.52"}
    ]},
    {"tested_on": "Bel-7402", "assay": "Cytotoxicity against human Bel-7402 cells by SRB assay", "format": "functional, cell-based", "values": [
      {"compound": "COc1cccc2c1C(=O)c1c(O)c3c(c(O)c1C2=O)C[C@@](O)(C(=O)CO)C[C@@H]3O[C@H]1C[C@H](N)[C@H](O)[C@H](C)O1", "note": "[DOXORUBICIN]", "pIC50": "> 6.00"},
      {"compound": "Cc1c(O)cc(O)c2c1[C@H](C)[C@@H](C)OC21CCCCC1", "pIC50": 4.92},
      {"compound": "Cc1c(O)cc2c3c1[C@H](C)[C@@H](C)O[C@@H]3[C@@H]1CCCC[C@]1(O)O2", "pIC50": "< 4.52"},
      {"compound": "Cc1c(O)cc2c3c1[C@H](C)[C@@H](C)O[C@H]3[C@@H]1CCCC[C@@]1(O)O2", "pIC50": "< 4.52"}
    ]}
  ]
}
